For 22 compounds, IC50 and Kd results are on record in patent publication US20240279221A1, “HETEROCYCLIC COMPOUNDS AND METHODS OF USE” (Schrödinger, Inc., priority 2021, published 2024).

Structures are written as SMILES.

In experiment [1] the target is SOS1:KRAS (G12C) interaction (Homo sapiens (Human), UniProt Q07889). Briefly: SOS1-KRas(G12C) FRET Assay. The note with it: 0.5 nM His10-SOS1 (res. 564-1049), 2.5 nM GST-KRAS (res. 1-169, G12C); read-out: SOS-KRas(G12C) FRET IC50. Format: binding. Put shortly:
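Compounds were pre-incubated 15 min at 25° C with SOS1 (His10, res. 564-1049; 0.5 nM final) and anti-6His-XL665, then GST-KRAS G12C (res. 1-169; 2.5 nM final) with anti-GST-Eu(K) was added for 2 h at RT. The buffer was PBS, 0.1% BSA, 5 mM MgCl2, 100 mM KF, 5 mM DTT with 0.5% DMSO. The 665/615 nm signal was normalised to DMSO and no-SOS1 controls, and IC50 and Hill coefficient were fitted by non-linear regression.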

The next experiment addresses human SOS1 (Homo sapiens (Human), UniProt Q07889). Briefly: Surface Plasmon Resonance (SPR) SOS1 Binding Assay. Conditions: biotinylated SOS1 (res. 564-1049), 25° C., kinetic or steady state fit, read-out: KD for hSOS1. Put shortly: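 Biotinylated human SOS1 (res. 564-1049, N-terminal Avi tag) captured on streptavidin chip to ~3,000 RU; 25° C., Tris buffer pH 8.0 with 1 mM MgCl2, 5% DMSO running buffer. Compound series (top 100, 50 or 0.5 μM) injected 60 s, dissociation 600 s; double-referenced KD from 1:1 kinetic or steady-state fit.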

human SOS1, sequence (Q07889 564-1049): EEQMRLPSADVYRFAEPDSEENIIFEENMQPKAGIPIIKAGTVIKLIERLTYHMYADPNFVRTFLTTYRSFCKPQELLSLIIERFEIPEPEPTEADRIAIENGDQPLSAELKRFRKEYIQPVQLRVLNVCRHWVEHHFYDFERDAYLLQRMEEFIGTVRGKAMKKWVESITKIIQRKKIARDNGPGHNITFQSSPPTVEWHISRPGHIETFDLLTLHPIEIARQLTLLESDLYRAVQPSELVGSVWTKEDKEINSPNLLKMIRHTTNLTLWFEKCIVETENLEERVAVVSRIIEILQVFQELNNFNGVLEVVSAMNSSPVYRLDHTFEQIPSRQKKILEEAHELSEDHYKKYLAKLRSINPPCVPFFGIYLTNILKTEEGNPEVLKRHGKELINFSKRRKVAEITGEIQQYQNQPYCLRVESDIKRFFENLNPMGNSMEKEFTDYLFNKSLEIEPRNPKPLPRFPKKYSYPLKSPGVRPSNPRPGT
SOS1:KRAS (G12C) interaction, sequence (Q07889 564-1049, stated change not applied): as the sequence (Q07889 564-1049) above

Regarding `C[C@@H](Nc1nn(C)c(=O)c2cc(=O)n(C34CC(N5CCOCC5)(C3)C4)cc12)c1cccc(C(F)F)c1F` [Example 50, (R)-4-((1-(3-(difluoromethyl)-2-fluorophenyl)ethyl)amino)-2-methyl-6-(3-morpholinobicyclo[1.1.1]pentan-1-yl)-2,6-dihydropyrido[3,4-d]pyridazine-1,7-dione], the IC50 in experiment [1] was determined as 54.4 nM. Further, the Kd at human SOS1 stood at 29 nM.

`C[C@@H](Nc1nn(C)c(=O)c2cc(=O)n(C3CC4(COC4)C3)cc12)c1cccc(C(F)F)c1F` [Example 51, (R)-4-((1-(3-(difluoromethyl)-2-fluorophenyl)ethyl)amino)-2-methyl-6-(2-oxaspiro[3.3]heptan-6-yl)pyrido[3,4-d]pyridazine-1,7(2H,6H)-dione]: the IC50 in experiment [1] worked out at 47.3 nM. On human SOS1, the Kd came to 17 nM.

`C[C@@H](Nc1nn(C)c(=O)c2cc(=O)n(C3CC3)cc12)c1cc(Br)cs1` [Example 56, (R)-4-((1-(4-bromothiophen-2-yl)ethyl)amino)-6-cyclopropyl-2-methyl-2,6-dihydropyrido[3,4-d]pyridazine-1,7-dione]: the IC50 in experiment [1] was found to be 1930 nM. For the same compound, on human SOS1, the Kd turned out to be 530 nM.

Regarding `CNCc1ccccc1-c1csc([C@@H](C)Nc2nn(C)c(=O)c3cc(=O)n(C4CC4)cc23)c1` [Example 57, (R)-6-cyclopropyl-2-methyl-4-((1-(4-(2-((methylamino)methyl)phenyl)thiophen-2-yl)ethyl)amino)-2,6-dihydropyrido[3,4-d]pyridazine-1,7-dione], in experiment [1], the IC50 worked out at 21.9 nM. In addition, the Kd on human SOS1 was 8 nM.

With `C[C@@H](Nc1nn(C)c(=O)c2cc(=O)n(C3CCOCC3)cc12)c1cccc2sccc12` [Example 62, (R)-4-((1-(benzo[b]thiophen-4-yl)ethyl)amino)-2-methyl-6-(tetrahydro-2H-pyran-4-yl)-2,6-dihydropyrido[3,4-d]pyridazine-1,7-dione], the IC50 in experiment [1] was 75.3 nM. Moreover, on human SOS1, the Kd came out at 13 nM.

As to `C[C@@H](Nc1nn(C)c(=O)c2cc(=O)n(C3CC3)cc12)c1cccc2sccc12` [Example 64, (R)-4-((1-(benzo[b]thiophen-4-yl)ethyl)amino)-6-cyclopropyl-2-methyl-2,6-dihydropyrido[3,4-d]pyridazine-1,7-dione], the IC50 in experiment [1] is 126 nM. Besides, the Kd at human SOS1 is 31 nM.

`C[C@@H](Nc1nn(C)c(=O)c2cc(=O)n(C3(C#N)CC3)cc12)c1cccc(C(F)F)c1F` [Example 66, (R)-1-(4-((1-(3-(difluoromethyl)-2-fluorophenyl)ethyl)amino)-2-methyl-1,7-dioxo-1,7-dihydropyrido[3,4-d]pyridazin-6(2H)-yl)cyclopropane-1-carbonitrile]: the IC50 in experiment [1] was determined as 72.5 nM. The Kd at human SOS1 was 26 nM.

Turning to `C[C@@H](Nc1nn(C)c(=O)c2cc(=O)n(C3CCOCC3)cc12)c1cccc2c1CCC2(F)F` [Example 67, (R)-4-((1-(1,1-difluoro-2,3-dihydro-1H-inden-4-yl)ethyl)amino)-2-methyl-6-(tetrahydro-2H-pyran-4-yl)pyrido[3,4-d]pyridazine-1,7(2H,6H)-dione], the IC50 in experiment [1] was determined as 24.6 nM. The Kd at human SOS1 came to 10 nM.

Take `C[C@H](Nc1nn(C)c(=O)c2cc(=O)n(C3CCOCC3)cc12)c1cccc2c1CCC2(F)F` [Example 68, (S)-4-((1-(1,1-difluoro-2,3-dihydro-1H-inden-4-yl)ethyl)amino)-2-methyl-6-(tetrahydro-2H-pyran-4-yl)pyrido[3,4-d]pyridazine-1,7(2H,6H)-dione]: the IC50 in experiment [1] came out at 1710 nM. Besides, the Kd at human SOS1 stood at 1490 nM.

On to `C[C@@H](Nc1nn(C)c(=O)c2cc(=O)n(C34CC(C(=O)N(C)C)(C3)C4)cc12)c1cccc(C(F)F)c1F` [Example 69, (R)-3-(4-((1-(3-(difluoromethyl)-2-fluorophenyl)ethyl)amino)-2-methyl-1,7-dioxo-1,7-dihydropyrido[3,4-d]pyridazin-6(2H)-yl)-N,N-dimethylbicyclo[1.1.1]pentane-1-carboxamide], for which, in experiment [1], the IC50 was determined as 34.8 nM. The Kd on human SOS1 was 10 nM.

Consider `C[C@@H](Nc1nn(C)c(=O)c2cc(=O)n(C3(C(F)F)CC3)cc12)c1cccc(C(F)(F)C(C)(C)O)c1F` [Example 70, (R)-4-((1-(3-(1,1-difluoro-2-hydroxy-2-methylpropyl)-2-fluorophenyl)ethyl)amino)-6-(1-(difluoromethyl)cyclopropyl)-2-methyl-2,6-dihydropyrido[3,4-d]pyridazine-1,7-dione], for which the IC50 in experiment [1] came out at 16.7 nM. The Kd at human SOS1 was found to be 12 nM.

Regarding `C[C@@H](Nc1nn(C)c(=O)c2cc(=O)n(C3(C(F)(F)F)CC3)cc12)c1cccc(C(F)F)c1F` [Example 71, (R)-4-((1-(3-(difluoromethyl)-2-fluorophenyl)ethyl)amino)-2-methyl-6-(1-(trifluoromethyl)cyclopropyl)-2,6-dihydropyrido[3,4-d]pyridazine-1,7-dione], in experiment [1], the IC50 was found to be 69.8 nM. On human SOS1, the Kd worked out at 31 nM.

`C[C@@H](Nc1nn(C)c(=O)c2c(Br)c(=O)n(C3(C(F)F)CC3)cc12)c1cccc(C(F)F)c1F` [Example 72, (R)-8-bromo-4-((1-(3-(difluoromethyl)-2-fluorophenyl)ethyl)amino)-6-(1-(difluoromethyl)cyclopropyl)-2-methyl-2,6-dihydropyrido[3,4-d]pyridazine-1,7-dione]: the IC50 in experiment [1] is 68.3 nM. Besides, the Kd at human SOS1 was 60 nM.

Turning to `COc1c(=O)n(C2(C(F)F)CC2)cc2c(N[C@H](C)c3cccc(C(F)F)c3F)nn(C)c(=O)c12` [Example 73, (R)-4-((1-(3-(difluoromethyl)-2-fluorophenyl)ethyl)amino)-6-(1-(difluoromethyl)cyclopropyl)-8-methoxy-2-methyl-2,6-dihydropyrido[3,4-d]pyridazine-1,7-dione], in experiment [1], the IC50 came to 60.8 nM. Moreover, the Kd on human SOS1 was 27 nM.

As to `Cc1c(=O)n(C2(C(F)F)CC2)cc2c(N[C@H](C)c3cccc(C(F)F)c3F)nn(C)c(=O)c12` [Example 74, (R)-4-((1-(3-(difluoromethyl)-2-fluorophenyl)ethyl)amino)-6-(1-(difluoromethyl)cyclopropyl)-2,8-dimethyl-2,6-dihydropyrido[3,4-d]pyridazine-1,7-dione], the IC50 in experiment [1] was 91 nM. At human SOS1, the equilibrium dissociation constant (Kd) is 69 nM.

Take `C[C@H](Nc1nn(C)c(=O)c2cc(=O)n([C@H]3C[C@@H](C#N)C3)cc12)c1cccc(C(F)F)c1F` [Example 75, (1S,3s)-3-(4-(((R)-1-(3-(difluoromethyl)-2-fluorophenyl)ethyl)amino)-2-methyl-1,7-dioxo-1,7-dihydropyrido[3,4-d]pyridazin-6(2H)-yl)cyclobutane-1-carbonitrile]: the IC50 in experiment [1] is 127 nM. For the same compound, the Kd on human SOS1 was 73 nM.

`C[C@@H](Nc1nn(C)c(=O)c2cc(=O)n(C3CC(C#N)C3)cc12)c1cccc(C(F)F)c1F` (stereo partly drawn) [Example 76, (1r,3s)-3-(4-(((R)-1-(3-(difluoromethyl)-2-fluorophenyl)ethyl)amino)-2-methyl-1,7-dioxo-1,7-dihydropyrido[3,4-d]pyridazin-6(2H)-yl)cyclobutane-1-carbonitrile]: in experiment [1], the IC50 came out at 92.8 nM. The Kd at human SOS1 was found to be 37 nM.

With `Cc1c([C@@H](C)Nc2nn(CCO)c(=O)c3cc(=O)n(C4CC4)cc23)cccc1C(F)(F)F` [Example 77, (R)-6-cyclopropyl-2-(2-hydroxyethyl)-4-((1-(2-methyl-3-(trifluoromethyl)phenyl)ethyl)amino)-2,6-dihydropyrido[3,4-d]pyridazine-1,7-dione], in experiment [1], the IC50 turned out to be 305 nM. Moreover, the dissociation constant Kd at human SOS1 turned out to be 61 nM.

Turning to `COC1(C)CN(CCn2nc(N[C@H](C)c3cccc(C(F)(F)F)c3C)c3cn(C4CC4)c(=O)cc3c2=O)C1` [Example 78, (R)-6-cyclopropyl-2-(2-(3-methoxy-3-methylazetidin-1-yl)ethyl)-4-((1-(2-methyl-3-(trifluoromethyl)phenyl)ethyl)amino)-2,6-dihydropyrido[3,4-d]pyridazine-1,7-dione], the IC50 in experiment [1] stood at 89 nM. Also, the Kd at human SOS1 was 55 nM.

With `Cc1c([C@@H](C)Nc2nn(CCN3CC(C)(F)C3)c(=O)c3cc(=O)n(C4CC4)cc23)cccc1C(F)(F)F` [Example 79, (R)-6-cyclopropyl-2-(2-(3-fluoro-3-methylazetidin-1-yl)ethyl)-4-((1-(2-methyl-3-(trifluoromethyl)phenyl)ethyl)amino)-2,6-dihydropyrido[3,4-d]pyridazine-1,7-dione], the IC50 in experiment [1] was 300 nM. The Kd at human SOS1 is 124 nM.

Turning to `Cc1c([C@@H](C)Nc2nn(C)c(=O)c3c(N(C)C)c(=O)n(C4CC4)cc23)cccc1C(F)(F)F` [Example 80, (R)-6-cyclopropyl-8-(dimethylamino)-2-methyl-4-((1-(2-methyl-3-(trifluoromethyl)phenyl)ethyl)amino)-2,6-dihydropyrido[3,4-d]pyridazine-1,7-dione], the IC50 in experiment [1] stood at 302 nM. In addition, the Kd at human SOS1 is 303 nM.

Turning to `Cc1c([C@@H](C)Nc2nn(C)c(=O)c3c(OC(C)C)c(=O)n(C4CC4)cc23)cccc1C(F)(F)F` [Example 81, (R)-6-cyclopropyl-8-isopropoxy-2-methyl-4-((1-(2-methyl-3-(trifluoromethyl)phenyl)ethyl)amino)-2,6-dihydropyrido[3,4-d]pyridazine-1,7-dione], the IC50 in experiment [1] was 376 nM. At human SOS1, the dissociation constant (Kd) came to 134 nM.

A word on the IC50: it is the concentration that inhibits the measured activity by half. As usually defined, the Kd is the concentration at which binding is half-saturated.
